This data set can be described thus: Theophylline release experiment in pH 7 phosphate buffer. It counts as physicochemical. The settings on record: FIG. 24. The procedure: First, the porous particles containing theophylline of Application Examples of 4-1 to 4-4 were dispersed in a phosphate buffer solution of pH 7 at 200 mg/100 mL.
Next, the solution was collected over time, filtered by a filter, and thereafter analyzed by high-performance liquid chromatography, and the concentration of theophylline in the solution was measured.

As for `Cn1c(=O)c2[nH]cnc2n(C)c1=O` [theophylline alone, theophylline], the “Theophylline release / dissolution behaviour” value is “whole amount was dissolved instantaneously”.
